Experimental data taken from patent US9040717B2, “Pyrazole-amide compounds and pharmaceutical use thereof” (JAPAN TOBACCO INC., priority 2013, dated 2015).

Key:
human PDHK2 (hPDHK2) = human PDHK2 (hPDHK2) (Homo sapiens (Human), UniProt Q15119); assay: Inhibitory action of PDHK2 activity in vitro (residual PDH activity after kinase reaction); format: biochemical
Description: The inhibitory action of PDHK activity was assessed indirectly by measuring the residual PDH activity after kinase reaction in the presence of a test compound.
In the case of human PDHK2 (hPDHK2, Genbank Accession No. BC040478.1), modified hPDHK2 cDNA wherein FLAG-Tag sequence was added to the N terminus of hPDHK2 cDNA clone (pReceiver-M01/PDK2-GeneCopoeia) was prepared by PCR and cloned into a vector (pET17b-Novagen). The recombinant construct was transformed into Escherichia coli (DH5α-TOYOBO). The recombinant clones were identified, and plasmid DNA was isolated and subjected to the DNA sequence analysis. One clone which had the expected nucleic acid sequence was selected for expression work.
For expression of hPDHK2 activity, Escherichia coli strain BL21(DE3) cells (Novagen) were transformed with the pET17b vector containing modified hPDHK2 cDNA. The Escherichia coli were grown to an optical density 0.6 ([…]) at 30° C. Protein expression was induced by the addition of 500 μmol/L isopropyl-β-thiogalactopyranoside. The Escherichia coli were cultured at 30° C. for 5 hr and harvested by centrifugation. Resuspension of the Escherichia coli paste was disrupted by a microfluidizer. FLAG-Tagged protein was purified using FLAG affinity gel. […]
0.05 U/mL PDH and 0.8 μg/mL hPDHK2 were mixed in a buffer (50 mmol/L 3-morpholinopropanesulfonic acid (pH 7.0), 20 mmol/L dipotassium hydrogen phosphate, 60 mmol/L potassium chloride, 2 mmol/L magnesium chloride, 0.4 mmol/L EDTA, and 0.2% Pluronic F-68, 2 mmol/L dithiothreitol), and the mixture was incubated at 4° C. overnight to obtain a PDH/hPDHK2 complex. […] The mixture was incubated at room temperature for 90 min, and the residual PDH activity was measured. The absorbance at 340 nm before and after PDH reaction was measured using a microplate reader to detect NADH produced by the PDH reaction. The hPDHK2 inhibition rate (%) of the test compound was calculated from the formula [{(PDH activity of test compound−PDH activity of control)/PDH activity of blank−PDH activity of control)}×100].

[1] = system: Zucker Diabetic Fatty rats; assay: Effect of repeated administration on HbA1c in ZDF rats; format: in vivo, rat; details: 1 mg/kg oral once daily, day 14 of administration, mean ± S.D. (n = 10), *p < 0.05 vs. vehicle group
Description: Zucker Diabetic Fatty rats (male, 7-week-old, CHARLES RIVER LABORATORIES JAPAN INC.), an animal model for type 2 diabetes, given a purified diet (5.9% fat diet, Oriental Yeast Co., Ltd.) were allocated to the vehicle group and the test compound groups so that no bias occurred in the plasma glucose and insulin levels, HbAlc levels and body weights. Repeated oral doses of the test compound (1 mg/kg/5 mL) were administered to the rats once daily at 3 hr before the dark period. A 0.5% aqueous methylcellulose solution was orally administered in the same manner to the rats of the vehicle group. On day 14 of administration, blood samples were collected from the tail vein and HbAlc level (%) was measured. Statistical analysis was performed by Dunnett's test. Values of p<0.05 were cosidered statistically significant.

In the case of `CC(C)(O)CCOc1cc(-c2cnn(C(C)(C)C(N)=O)c2)c2c(c1)[C@@](O)(C(F)(F)F)c1ccccc1-2` [Compound (2), 2-{4-[(9R)-9-hydroxy-2-(3-hydroxy-3-methylbutyloxy)-9-(trifluoromethyl)-9H-fluoren-4-yl]-1H-pyrazol-1-yl}-2-methylpropanamide], the IC50 (human PDHK2 (hPDHK2)) is reported as 4.6 nM and the “HbA1c (%)” value [1] is reported as 3.2 ± 0.1* %.
With `CC(C)(O)CCCOc1cc(-c2cnn(C(C)(C)C(N)=O)c2)c2c(c1)[C@@](O)(C(F)(F)F)c1ccccc1-2` [Compound (3), 2-{4-[(9R)-9-hydroxy-2-(4-hydroxy-4-methylpentyloxy)-9-(trifluoromethyl)-9H-fluoren-4-yl]-1H-pyrazol-1-yl}-2-methylpropanamide] the IC50 (human PDHK2 (hPDHK2)) was 4.2 nM and the “HbA1c (%)” value [1] was 3.4 ± 0.1* %.
